Source: US20120039808A1, “Brain Tumor Stem Cell Differentiation Promoter, and Therapeutic Agent for Brain Tumor” (The University of Tokyo, priority 2009, published 2012)
“Also recorded” adds a separate entry of the source. Blank lines part the entries; values can stand above or below the molecule they belong to.

Legend:
[1] = tested on: glioma-initiating cells (TGS-01, TGS-04); assay: Sphere formation assay; format: cell-based, human
Protocol: GICs were cultivated for seven days using a non-tissue-culture-treated-flask with vent cap (BD Bioscience). The floating spheres were counted for each sample within five fields of vision under a microscope.
To clarify the role of TGF-β signals in glioma-initiating cells, first the effects due to TGF-β signal inhibition were examined. A sphere formation ability assay was implemented in the presence of either TGF-β or a TGF-β inhibitor (SB431542, 1 μM).
SB431542 can inhibit not only the TGF-β type I receptor (ALK5), but also activin/nodal type I receptor signals, so to identify the role of TGF-β signals, the effects of a TGF-β receptor II/Fc chimera on glioma-initiating cells were examined. The glioma-initiating cells were separated into single cells, and a sphere assay implemented in the presence of either human TGF-βRII/Fc chimera (1 μg/mL), or IgG1Fc (1 μg/mL) as a control.

[2] = tested on: Nestin, Musashi, GFAP, Tuj1 positive glioma-initiating cells; assay: Immunostaining of neural precursor and differentiation markers; format: cell-based, human
Protocol: Glioma-initiating cells (GICs) were seeded on glass slides that had been coded using poly-L-ornithine (Sigma) and fibronectin (Sigma), and were then cultured for seven days together with various ligands or inhibitors in serum-free culture. The cells were fixed using 3.7% paraformaldehyde, and then the cell membrane was made permeable using 0.3% Triton […] including PBS, and incubated together with various antibodies.
(§1) Next, the effects of TGF-β (100 μM) or SB431542 (1 μM) were examined using flow cytometry. In the presence of TGF-β inhibitors, the percentage of CD133-positive cells in the glioma spheres was reduced. (See FIG. 3A.) Further, to examine the expression of neural precursor cell markers or neural cell differentiation markers in the glioma spheres, the spheres (TGS-01) were separated into single serum-free culture, and seeded on glass slides that had been coded using poly-L-ornithine (Sigma) and fibronectin (Sigma), and were then cultured for seven days together with TGF-β (100 μM) or the inhibitor SB431542 (1 μM). The cells were fixed using 3.7% paraformaldehyde, and the cell membrane was made permeable using 0.3% Triton […] including PBS, and incubated together with antibodies before immunostaining was implemented.

[3] = tested on: SMAD complexes binding to Sox4 promoters; assay: Chromatin immunoprecipitation with SMAD2 and SMAD3 antibodies; format: cell-based, human; details: TGS-01; 1.5 hours; TGF-β 100 μM or SB431542 1 μM
Protocol: (§2) Chromatin immunoprecipitation was implemented using the method described by Koinuma et al. (Molecular and Cellular Biology, 2009, 29:172-186, 10.1128/MCB, 01038-08). After reverse cross-linking, the DNA was processed using proteinase K, and refined using a PCR purification kit (Qiagen). The DNA was eluted into 30 μL of TE, and used in either PCR or quantitative real-time PCR. The primers used in the PCR are as described below.
To verify that Sox4 is a direct TGF-β marker, chromatin immunoprecipitation assay was implemented using antibodies to SMAD2 and SMAD3, which are DNA binding signal mediators for the TGF-β signals. Specifically, TGS-01 cells were processed for 1.5 hours using either TGF-β (100 μM), or SB431542 (1 μM), and the eluted DNA was supplied for either real-time PCR or RT-PCR. In real-time PCR, the measured values were normalized using the first introns of hypoxanthine phosphoribosyltransferase (HPRT). […] (See FIG. 6F.)

[4] = tested on: Sox4 recruitment to the Sox2 enhancer region; assay: Chromatin immunoprecipitation with Sox4 antibodies; format: cell-based, human; details: TGS-01; 24 hours; TGF-β 100 μM or SB431542 1 μM
Protocol: as §2
To verify that this control is direct, chromatin immunoprecipitation assay was implemented using Sox4 antibodies. It has previously been reported that the enhancer region located in the Sox2 gen 3′ flanking region is important for controlling Sox2 expression. (Chew et al., Molecular and Cellular Biology, 2005, 25:6031-6046; Tomioka et al., Nucleic Acids Research, 2002, 30: 3202-3213.) This region includes the consensus binding motif CATTGTA to Sox4. […]
Here, TGS-01 cells were processed for 24 hours using either TGF-β (100 μM), or SB431542 (1 μM), and the eluted DNA analyzed using quantitative real-time PCR. The measured values were normalized using HPRT first intron quantities. […] Further, to examine the effects of Sox4 knockdown on sox2 expression induction by TGF-β, siRNA was stained, and after for 24 hours, was processed for a further 24 hours using TGF-β (100 μM), and the Sox2 mRNA expression levels measured using real-time PCR. […]

[5] = tested on: TGS-01 cells transplanted intracranially; assay: Intracranial proliferation assay; format: in vivo, BALB/c nu/nu mice
Protocol: Glioma-initiating cells (living cells […] in 5 μL of DMEM/F12 culture) were injected stereotaxically at a depth of 3 mm into the right cerebral hemisphere of five-week-old female BALB/c nu/nu mice. All animal testing was implemented according to the policies of the University of Tokyo animal testing committee.
Specifically, adenovirus-Sox4 or adenovirus-LacZ staining was implemented, and 5×10^4 TGS-01 cells either unprocessed or after 24 hours processing using a TGF-β inhibitor were transplanted intracranially. TGF-β is well-known to promote glioma cell proliferation, so to classify the results into effects on growth and effects in differentiation, SB431542 processing was implemented as pre-processing and not implemented continuously. Six mice were used for each condition, and evaluated using Kaplan-Meier analysis. The p values were determined using the long-rank test. […] Further, the results of histological analysis of the samples dissected 30 days after intracranial transplant are shown in FIG. 11 (Right). Tissue sections were stained using hematoxylin and eosin (HE).

[6] = tested on: Sox2 mRNA; assay: Sox2 mRNA expression by quantitative real-time PCR; format: cell-based, human
Protocol: (§3) Quantitative real-time PCR was implemented according to the method by Ikushima et al. (EMBO J. 2008, 27: 2955-2965). All samples were implemented in triplicate. The data was normalized using glyceraldehyde 3-phosphate dehydrogenase (GAPDH).
In addition, siRNA (siSMAD2 and siSMAD3) were transfected to SMAD2 and SMAD3 in TGS-01 cells, and incubated for 24 hours, and then processed for TGF-β (100 μM), and the expression levels measured. […] (See FIG. 4B).
The induction of Sox2 expression by TGF-β was observed 24 hours after stimulation, but not observed after three hours. (See FIG. 4A.) Further, the effects of TGF-β on Sox2 expression in the presence of cycloheximide, which is a protein synthesis inhibitor, were examined. TGF-β (100 μM) processing was implemented for 24 hours, and after processing the TGF-β for 30 minutes, the cycloheximide processing was started, and the Sox2 expression levels were measured. In the presence of cycloheximide, which is a protein synthesis inhibitor, the induction of Sox2 expression was reduced. From these facts, it is thought that Sox2 expression is not induced directly by TGF-β, but rather, that it is controlled by other factors that are induced by TGF-β.

[7] = tested on: Sox4 mRNA; assay: Sox4 mRNA expression by quantitative real-time PCR; format: cell-based, human; details: for Sox4 mRNA expression: TGS-01 and TGS-04, three hours and 24 hours, TGF-β 100 μM or SB431542 1 μM
From the text: as §3

[8] = tested on: CD133-positive cells in glioma spheres; assay: Flow cytometry of CD133-positive cells; format: cell-based, human
Protocol: The cells were separated into single cells, and marked using phycoerythrin marker CD133 antibodies. The expression levels were measured using EXPO32 ADC software through a Beckman C EPICS XL flow cytometer.
as §1

[9] = tested on: Sox2 protein; assay: Sox2 protein level by immunoblotting; format: cell-based, human; details: 24-hour processing; TGF-β 100 μM or SB431542 1 μM
Protocol: The cells were dissolved in a buffer including 1% Nonidet P-40, 20 mM Tris-hydrochloride (pH7.4), 150 mM sodium chloride, 1 mM PMSF, 1% aprotinin, and 5 mM EDTA. The proteins refined from the cytolized product was supplied to SDS-PAGE, and transferred to a Fluoro Trans W Membrane (Pall). Immunoblotting was implemented using various types of antibodies.
Moreover, it was also verified that the 24-hour processing using TGF-β (100 μM) or SB431542 (1 μM) suppressed the expression of Sox2 protein levels. (See FIG. 4C.) In the diagram, α-tubulin is the loading control.

[10] = tested on: Oct-4, NANOG, and LIF expression; assay: Expression of stem cell markers Oct-4, NANOG, LIF; format: cell-based, human
From the text: as §3
(See FIG. 14.) Further, it has been reported that NANOG and LIF are induced in many cells by stimulating TGF-β. (Xu et al., Cell Stem Cell, 2008, 3: 206; Bruna et al., Cancer Cell, 2007, 11: 147-160.)

[11] = cells pre-processed with SB431542, 30 days after intracranial transplant
[12] = 24 hours after processing, TGF-β 100 μM or SB431542 1 μg (so in the source)

Molecule: NC(=O)c1ccc(-c2nc(-c3ccc4c(c3)OCO4)c(-c3ccccn3)[nH]2)cc1 [SB431542]
- sphere formation ability of glioma-initiating cells ([1]; SB431542 1 μM, seven days culture): conspicuously reduced
- spherical growth pattern of spheres that had once formed ([1]; SB431542 added to formed spheres): became adhesion cells
- sphere formation ability ([1]; TGS-01 over-expressing Sox4 (adenovirus-Sox4 vs adenovirus-LacZ), SB431542 1 μM, seven days): fall in sphere formation ability was alleviated
- sphere formation abilities ([1]; glioma-initiating cells over-expressing Sox2, compared to LacZ over-expressing cells): reduced only slightly
- percentages of Nestin-positive cells and GFAP-positive cells ([2]; TGS-01 over-expressing Sox4, SB431542, seven days): no major changes
- percentage of GFAP-positive cells ([2]; cells over-expressing Sox2): did not increase
- percentage of Nestin-positive cells ([2]; cells over-expressing Sox2): did not fall
- binding of SMAD complexes to Sox4 promoters [3]: clearly controlled
- Sox4 recruitment to the Sox2 enhancer region [4]: clearly reduced
- survival period of the mice ([5]; TGS-01 (adenovirus-LacZ) pre-processed 24 hours with SB431542 vs unprocessed control, Kaplan-Meier): significantly longer
- neurological symptoms [5, 11]: did not show any neurological symptoms
- tumors on pathological examination using HE staining [5, 11]: did not reveal any tumors
- extension of survival periods ([5]; glioma-initiating cells over-expressing Sox4, pre-processed with SB431542): did not shown any effects
- expression of Sox2 mRNA [6, 12]: suppressed
- expression of Sox2 mRNA ([6]; subsequently for seven days, SB431542 1 μg (so in the source)): low expression level continued
- Sox4 mRNA expression [7]: down-regulated
- percentage of CD133-positive cells in the glioma spheres ([8]; SB431542 1 μM): reduced
- expression of Sox2 protein levels [9]: suppressed

- binding of SMAD complexes to Sox4 promoters [3]: bound directly
Molecule: TGF-β
- sphere formation ability ([1]; adding TGF-β): did not greatly influence
- marker expression ([2]; adding TGF-β (100 μM [sic]), seven days): did not greatly influence
- Sox4 recruitment to the Sox2 enhancer region [4]: increased
- expression of Sox2 mRNA [6, 12]: induced; also recorded: observed
- induction of Sox2 expression ([6]; three hours after TGF-β stimulation): not observed
- Sox4 mRNA expression [7]: induced
- LIF expression ([10]; TGS-01 or TGS-04 cells, TGF-β signals): did not induce
- expression of Oct-4, NANOG, and LIF ([10]; processing using TGF-β or an inhibitor): not greatly affected
- CD133-positive ratio ([8]; adding TGF-β (100 μM [sic])): did not greatly influence
- expression of Sox2 protein levels [9]: suppressed

Molecule: CC1=C2C[C@H]3[C@@H](CC=C4C[C@@H](O)CC[C@@]43C)[C@@H]2CC[C@]12O[C@@H]1C[C@H](C)CN[C@H]1[C@H]2C [cyclopamine]
- effects on sphere formation compared with SB431542 ([1]; TGS-01, cyclopamine 2.5, 5, 10 μM vs SB431542 1 μM): smaller than those of SB431542
- effect on sphere formation of the two drugs combined ([1]; TGS-01, cyclopamine combined with SB431542 1 μM): no additional or synergistic effect
- sphere formation ability of TGS-01 cells ([1]; cyclopamine 2.5, 5, and 10 μM, seven days): reduced

Molecule: C[C@@H]1C[C@@H]([C@H](O)CC2CC(=O)NC(=O)C2)C(=O)[C@@H](C)C1 [cycloheximide]
- induction of Sox2 expression by TGF-β in the presence of cycloheximide ([6]; TGF-β 100 μM (so in the source) 24 hours, cycloheximide started after 30 minutes): reduced
- Sox4 induction by TGF-β in the presence of cycloheximide [7]: not influenced

B1: TGF-βRII/Fc: human TGF-β receptor II/Fc chimera (protein)
chain: TIPPHVQKSVNNDMIVTDNNGAVKFPQLCKFCDVRFSTCDNQKSCMSNCSITSICEKPQEVCVAVWRKNDENITLETVCHDPKLPYHDFILEDAASPKCIMKEKKKPGETFFMCSCSSDECNDNIIFSEEYNTSNPD
modifications: left off: a dimerising Fc or GST
notes: human TGF-β receptor II/Fc chimera
- efficiency in forming spheres ([1]; human TGF-βRII/Fc chimera 1 μg/mL, IgG1Fc 1 μg/mL as control): low
